The values below come from patent publication US20200077655A1, “Use of an Acyclic Picolinamide Compound as a Fungicide for Control of Phytopathogenic Fungi in Orchard, Vineyard and Plantation Crops” (Dow AgroSciences LLC, priority 2017, published 2020).

Holding throughout (format): in vivo
For experiment [1], the system named is Capnodium sp. (CAPDSP). The experiment can be described thus: Field assessment of sooty mold on pears. The source says: A 10% SC formulation of Compound I was tank mixed with three different adjuvants: Agnique BP420 (50% w/w at 0.3% v/v), Ethomeen T18H (50% w/w at 0.15% v/v) and Trycol (50% w/w at 0.3% v/v). Formulations of compound I were sprayed on the plant canopy of pear trees (Highland variety) of approximately 2.5 m in height at rates of 100, 150 and 200 grams of active ingredient per hectare (g ai/ha). The trial was based on six foliar applications during the growing season at approximately 12 day intervals with natural pear scab and sooty mold infections in open field conditions. The treatment was part of an experimental trial designed as a randomized complete block with four replications and a plot of approximately 3×5 m. Formulations of compound I were applied with a SOLO mistblower sprayer at a water volume of 1500 L/ha.
For VENTPI evaluation, percent control was calculated based on incidence and severity in fruit assessment vs the nontreated control on a random selection of 50 fruits per plot. […] Percent control for both diseases was calculated at 11DAAE, 7DAAF and 15DAAF.

Experiment [2] has as its system Botrytis cinerea (BOTRCI). Kind of experiment: Field assessment of gray mold on grapevine. The source says:
On grapevine: A fungicidal treatment containing Compound I, applied in a 5% EC formulation and tank mixed with an adjuvant (Trycol, 50% w/w at 0.2% v/v), was sprayed only on the bunch portion of grape plants (VITVI, Pinot grey variety) at rates of 50, 150 and 200 grams of active ingredient per hectare (g ai/ha). The trial was based on two applications 28 days apart in open field conditions with disease inoculation 3 days after the last application (plant growth stage B83). The treatment was part of an experimental trial designed as a randomized complete block with four replications and a plot of approximately 2.5×7.0 m. Formulations of compound I were applied at water volume of 500 L/ha (bunches only), using a backpack plot sprayer ([…], Solo 433; Airatom nozzle). Disease severity was recorded as a percentage of incidence and infection of damaged bunches on a random sample of 100 bunches per plot. Gray mold infection was assessed three times, the first at 22 days after the last application (22DAAB), the second and third at 28DAAB and 36DAAB. Area under the disease progress curve (AUDPC) was calculated for each plot using the sets of recorded severity data. Relative AUDPC (% control based on AUDPC) was calculated as percent of the nontreated control.

Experiment [3] concerns Botrytis (BOTRSP). Kind of experiment: Field assessment of jacket rot in almond. The settings on record: MSO, almond nut infection. As to the method: A fungicidal treatment containing Compound I, applied in an SC formulation (MSO-built in) was sprayed on almond trees (Prunus spp.) at bloom, petal fall and ca. 3 and 5 weeks after petal fall at rates of 60, 120, 150, and 180 g ai/ha. The experimental plots were conducted with a natural infestation of Botrytis. The treatments were part of an experimental trial designed as a randomized complete block (RCB) with three replications and a plot of approximately 18×18 ft. Compound I was applied at water volume of 100 gal/acre, using an Airblast sprayer. Nut infection (number of visual diseased nuts per total nuts counted per tree on whole plot) was assessed and recorded 17 days after application 4 (17 DAA4). Relative percent control was calculated as percent of the untreated control using Abbotts.

For experiment [4], the system named is Botrytis cinerea (BOTRCI). The experiment can be described thus: Field assessment of gray mold on strawberry. The source says:
On strawberry: A fungicidal treatment containing Compound I, applied in a 5% EC formulation and tank mixed with an adjuvant (Trycol, 50% w/w at 0.2% v/v), was sprayed on strawberry plants (FRAAN, Candonga variety) at rates of 50, 150 and 200 grams of active ingredient per hectare (g ai/ha). The trial was based on four broadcast applications during the growing season at approximately 10 day intervals with grey mold inoculation after the last application (plant growth stage B85). The treatment was part of an experimental trial designed as a randomized complete block with four replications and a plot size of approximately 2.0×5.0 m. Formulations of compound I were applied at water volume of 800 L/ha, using a backpack plot sprayer (BKPCKENG, solo 433; HCSOLID—Albutz ATR80 Yellow nozzle) and pressurized at 300 kPa.
Disease severity was recorded as a percentage of fruit incidence of damaged fruits on a random sample of 100 fruits per plot. Gray mold infection was assessed twice at 10 days after the third application (10DAAC) and 10DAAD. Area under the disease progress curve (AUDPC) was calculated for each plot using the sets of recorded incidence data. Relative AUDPC (% control based on AUDPC) was calculated as percent of the nontreated control.

Experiment [5] has as its system Monilinia laxa (MONILA). Kind of experiment: Field assessment on brown rot of flowers in stone fruits (apricots). The settings on record: 5% EC + Trycol, field grown apricots, protectant. The source says: A fungicidal treatment containing Compound I, applied in a 5% EC formulation and tank mixed with an adjuvant (Trycol, 50% w/w at 0.2% v/v), was sprayed twice during the flowering period on the plant canopy of apricots (PRNAR, Protici variety) at rates of 50, 100, and 150 grams of active ingredient per hectare (g ai/ha). The applications were done at 7 day intervals with disease inoculation at the last application (protectant). The treatment was part of an experimental trial designed as a randomized complete block with four replications and a plot of approximately 4.7×3.1 m, with compound I being applied using a MISTBLOW, Solo backpack applicator at a water volume of 500 L/ha. MONILA disease was evaluated on flowers on a sample of 10 pre-marked branches per tree. The number of infected flowers was counted and consequently the percent incidence was calculated. Visual infection was assessed three times during the trial at 10, 14 and 20 days after the second application. Area under the disease progress curve (AUDPC) was calculated for each plot using the sets of recorded severity data. Relative AUDPC (% control based on AUDPC) was calculated as percent of the nontreated control.

For `COc1ccnc(C(=O)N[C@@H](C)C(=O)O[C@@H](C)C(c2ccc(F)cc2)c2ccc(F)cc2)c1OC(C)=O` [Compound I, (S)-1,1-bis(4-fluorophenyl)propan-2-yl (3-acetoxy-4-methoxypicolinoyl)-L-alaninate], the “Percent control CAPDSP, incidence in leaf assessment” value in experiment [1] (100 g ai/ha, adjuvant Agnique BP420 (first such line, r11), 15 days after final application) is listed as “A (76-100)”; in experiment [1] (100 g ai/ha, adjuvant Agnique BP420 (second such line, r13), 15 days after final application), “A (76-100)”; in experiment [1] (100 g ai/ha, adjuvant ETHOMEEN, 15 days after final application), “A (76-100)”; in experiment [1] (100 g ai/ha, adjuvant None, 15 days after final application), “A (76-100)”; in experiment [1] (100 g ai/ha, adjuvant Trycol, 15 days after final application) it was “A (76-100)”; in experiment [1] (200 g ai/ha, adjuvant Agnique BP420, 15 days after final application), “A (76-100)”. The “Percent control (AUDPC) from fruit infection assessments” value in experiment [2] (50 g ai/ha) is “B (51-75)”; in experiment [2] (150 g ai/ha) it was “A (76-100)”; in experiment [2] (200 g ai/ha), “A (76-100)”; in experiment [4] (50 g ai/ha) it was “B (51-75)”; in experiment [4] (150 g ai/ha), “A (76-100)”; in experiment [4] (200 g ai/ha), “A (76-100)”. Further, the “Calc Percent Control of BOTRSP 17 DAA4” value in experiment [3] (60 g ai/ha, 120 g ai/ha) is 37.9%; in experiment [3] (120 g ai/ha, 240 g ai/ha), 40.0%; in experiment [3] (150 g ai/ha, 300 g ai/ha), 51.6%; in experiment [3] (180 g ai/ha, 360 g ai/ha), 53.5%. Also, the entries for the “% Control (AUDPC) from flower incidence assessments” value in experiment [5] (50 g ai/ha), in experiment [5] (100 g ai/ha) and in experiment [5] (150 g ai/ha) were “B (51-75)”, “A (76-100)” and “A (76-100)”, respectively.
